Laboratory results: EP3375430A1, “FRAGRANCE COMPOSITIONS” (Takasago International Corporation, priority 2017, dated 2018)

Key:
[1] = Amount of fragrance ingredients retained on paper blotter after evaporation (ethanol extraction, GC-MS); assay type: physicochemical
Description: A fragrance (hereafter fragrance TAK, the formulation of which is shown in table 1) was formulated in a typical Eau de Toilette (EdT1) or in fragrance compositions according to the invention (compositions C1 to C4), as shown in table 2. The amount of individual fragrance ingredients retained on paper substrate (blotter) after set time periods was assessed by the following method.
100µL samples of either EdT1 or compositions C1 to C4 were applied to 4.5cm long standard paper blotters with a microsyringe. Three replicate blotters were prepared for each extraction time. After the appropriate evaporation time each of the 3 blotters was transferred to a 30mL glass bottle. 3mL of ethanol and 50µL of a 1% solution of methyl decanoate in ethanol as an internal standard were added. The bottle was sealed and placed on a roller bed to extract the blotter for 1 hour. A sample of the extracting solution was transferred to a vial which was sealed and analysed by gas chromatography (GC 6890) with a Mass Spectrometer detector (MS 5973) using the method described below. The results of the three replicate measurements were averaged. At exact times the same extraction was repeated on the remaining blotters which were stored on a warm surface at 32°C open to the air to allow evaporation. The gas chromatography conditions were as given below.
• Initial Temp: 50°C • Initial Time: 2 min • Rate: 10°C /min • Final Temp: 280°C • Final Time: 5 min • Run Time: 30 min
• Column: HP-5MS 30m * 0.25mm * 0.25µm • Gas: Helium • Constant Pressure 18.55 psi
• Split mode Ratio 40:1 • Inlet Temp: 250°C
• MS 5973 • Mass range: 35 to 350 • Threshold: 100 • Mass Quad: 150°C • Mass Source: 230°C
To simplify the results the average amount of each fragrance ingredient from the 3 samples measured at time zero was set at 100% and all other measurements were then related to that value so tables 3 to 6 show decreasing amounts of fragrance ingredients as a percentage of the initial amount.
The method of example 1 was repeated using a commercial fragrance (hereafter fragrance COM1, the formulation of which is given in table 7) formulated in a typical Eau de Toilette (EdT2) or in fragrance compositions according to the invention (compositions C5 and C6), as shown in table 8.

[2] = Headspace concentration of fragrance ingredients over blotter (thermal desorption GC-MS); assay type: physicochemical; details: fragrance TAK; after 1 hour; both control EdT1 and composition C1; Figure 2
Description: The headspace concentration of individual ingredients of fragrance TAK, as formulated in either a conventional EdT (EdT1) or a fragrance composition of the invention (C1), was assessed by the method described below.
A 10 cm length was cut from a standard perfumers' blotter. A sample of 100µL volume was applied to the upper surface of the blotter with a syringe. The blotter was placed on a hot plate thermostatted at 32°C and left to equilibrate for 5 minutes. Two desorption tubes (6cm length 4mm internal diameter) each containing 2 cm length of Tenax TA adsorbent were fitted to the glass part of a headspace apparatus shown in figure 9. The glass part was fitted over the blotter, a metering pump was connected to one of the desorption tubes and air was drawn through the apparatus flushing the headspace over the blotter at a rate of 17mL/min. Sampling continued for about 16.5 minutes until 280mL of air had been extracted. Then the outlet desorption tube was analysed by gas chromatography as described below. The glass part was removed from the blotter which was left on the hotplate until the next sampling time when two fresh desorption tubes were fitted and the extraction procedure repeated for a further 280mL of extracted headspace.
• Initial Temp: 50°C • Initial Time: 5 min • Rate: 3°C /min • Final Temp: 250°C • Final Time: 20 min • Run Time: 91.67 min
• Column: HP-5MS 30m * 0.25mm * 0.25µm • Gas: Helium • Constant pressure 12.675 psi
• Initial Temp: -30°C • Equilibration Time: 0.05 min • Initial Time: 0.00 min • Rate 12°C / min • End Temp: 260°C • Hold Time: 10 min
Temperature program • Initial Temp: 35°C • Delay Time: 0.30 min • Initial Time: 0.00 min • Rate: 30°C / min • End Temp: 250°C • Hold Time: 5.00 min
TDU Settings • Transfer Temp: 250°C • Transfer Temp Mode: Fixed • Desorption Mode: splitless • Sample mode: Retain tube - standby cooling • Standby Temp: 50°C
Detector MS • MS 5973 • Mass range: 35 to 350 • Threshold: 150 • Mass Quad: 150°C • Mass Source: 230°C
Following the procedure of example 2, the headspace concentration of representative ingredients of fragrance COM1 was determined. COM1 was dosed at 5 and 20 % either in control EdT3 and EdT4 or in compositions of the invention C7 and C8, as shown in table 10.
The headspace concentration of individual ingredients of fragrance TAK (see Table 1), as formulated in either a conventional EdT (EdT1) or fragrance compositions of the invention (C14, C15), was assessed by the method described in example 2.

amount of fragrance ingredient retained on blotter (percentage of the initial amount) ([1]; Table 3, fragrance TAK in C1, 15 min, 32°C): 41% | amount of fragrance ingredient retained on blotter (percentage of the initial amount) ([1]; Table 3, fragrance TAK in C1, 60 min, 32°C): 5% | amount of fragrance ingredient retained on blotter (percentage of the initial amount) ([1]; Table 3, fragrance TAK in C1, 120 min, 32°C): 2% | amount of fragrance ingredient retained on blotter (percentage of the initial amount) ([1]; Table 3, fragrance TAK in C1, 240 min, 32°C): 2% | amount of fragrance ingredient retained on blotter (percentage of the initial amount) ([1]; Table 3, fragrance TAK in C1, 480 min, 32°C): 2% | amount of fragrance ingredient retained on blotter (percentage of the initial amount) ([1]; Table 3, fragrance TAK in EdT1, 15 min, 32°C): 13% | amount of fragrance ingredient retained on blotter (percentage of the initial amount) ([1]; Table 3, fragrance TAK in EdT1, 60 min, 32°C): 2% | amount of fragrance ingredient retained on blotter (percentage of the initial amount) ([1]; Table 3, fragrance TAK in EdT1, 120 min, 32°C): 2% | amount of fragrance ingredient retained on blotter (percentage of the initial amount) ([1]; Table 3, fragrance TAK in EdT1, 240 min, 32°C): 1% | amount of fragrance ingredient retained on blotter (percentage of the initial amount) ([1]; Table 3, fragrance TAK in EdT1, 480 min, 32°C): <1% | amount of fragrance ingredient retained on blotter (percentage of the initial amount) ([1]; Table 3, fragrance TAK in EdT1 or C1, T0, set at 100% (normalisation)): 100% | amount of fragrance ingredient retained on blotter (percentage of the initial amount) ([1]; Table 4, fragrance TAK in C2, 15 min, 32°C): 54% | amount of fragrance ingredient retained on blotter (percentage of the initial amount) ([1]; Table 4, fragrance TAK in C2, 480 min, 32°C): <1% | amount of fragrance ingredient retained on blotter (percentage of the initial amount) ([1]; Table 4, fragrance TAK in EdT1, 15 min, 32°C): 15% | amount of fragrance ingredient retained on blotter (percentage of the initial amount) ([1]; Table 4, fragrance TAK in EdT1, 480 min, 32°C): 6% | amount of fragrance ingredient retained on blotter (percentage of the initial amount) ([1]; Table 4, fragrance TAK in EdT1 or C2, T0, set at 100% (normalisation)): 100% | amount of fragrance ingredient retained on blotter (percentage of the initial amount) ([1]; Table 5, fragrance TAK in C3, 15 min, 32°C): 43% | amount of fragrance ingredient retained on blotter (percentage of the initial amount) ([1]; Table 5, fragrance TAK in C3, 60 min, 32°C): 5% | amount of fragrance ingredient retained on blotter (percentage of the initial amount) ([1]; Table 5, fragrance TAK in C3, 120 min, 32°C): 2% | amount of fragrance ingredient retained on blotter (percentage of the initial amount) ([1]; Table 5, fragrance TAK in C3, 240 min, 32°C): 2% | amount of fragrance ingredient retained on blotter (percentage of the initial amount) ([1]; Table 5, fragrance TAK in C3, 480 min, 32°C): 2% | amount of fragrance ingredient retained on blotter (percentage of the initial amount) ([1]; Table 5, fragrance TAK in C3, 1440 min, 32°C): 2% | amount of fragrance ingredient retained on blotter (percentage of the initial amount) ([1]; Table 5, fragrance TAK in EdT1, 15 min, 32°C): 13% | amount of fragrance ingredient retained on blotter (percentage of the initial amount) ([1]; Table 5, fragrance TAK in EdT1, 60 min, 32°C): 2% | amount of fragrance ingredient retained on blotter (percentage of the initial amount) ([1]; Table 5, fragrance TAK in EdT1, 120 min, 32°C): 2% | amount of fragrance ingredient retained on blotter (percentage of the initial amount) ([1]; Table 5, fragrance TAK in EdT1, 240 min, 32°C): 1% | amount of fragrance ingredient retained on blotter (percentage of the initial amount) ([1]; Table 5, fragrance TAK in EdT1, 480 min, 32°C): <1% | amount of fragrance ingredient retained on blotter (percentage of the initial amount) ([1]; Table 5, fragrance TAK in EdT1, 1440 min, 32°C): <1% | amount of fragrance ingredient retained on blotter (percentage of the initial amount) ([1]; Table 5, fragrance TAK in EdT1 or C3, T0, set at 100% (normalisation)): 100% | amount of fragrance ingredient retained on blotter (percentage of the initial amount) ([1]; Table 6, fragrance TAK in C4, 15 min, 32°C): 41% | amount of fragrance ingredient retained on blotter (percentage of the initial amount) ([1]; Table 6, fragrance TAK in C4, 60 min, 32°C): 5% | amount of fragrance ingredient retained on blotter (percentage of the initial amount) ([1]; Table 6, fragrance TAK in C4, 120 min, 32°C): 5% | amount of fragrance ingredient retained on blotter (percentage of the initial amount) ([1]; Table 6, fragrance TAK in C4, 240 min, 32°C): 4% | amount of fragrance ingredient retained on blotter (percentage of the initial amount) ([1]; Table 6, fragrance TAK in C4, 480 min, 32°C): 3% | amount of fragrance ingredient retained on blotter (percentage of the initial amount) ([1]; Table 6, fragrance TAK in EdT1, 15 min, 32°C): 13% | amount of fragrance ingredient retained on blotter (percentage of the initial amount) ([1]; Table 6, fragrance TAK in EdT1, 60 min, 32°C): 2% | amount of fragrance ingredient retained on blotter (percentage of the initial amount) ([1]; Table 6, fragrance TAK in EdT1, 120 min, 32°C): 2% | amount of fragrance ingredient retained on blotter (percentage of the initial amount) ([1]; Table 6, fragrance TAK in EdT1, 240 min, 32°C): 1% | amount of fragrance ingredient retained on blotter (percentage of the initial amount) ([1]; Table 6, fragrance TAK in EdT1, 480 min, 32°C): <1% | amount of fragrance ingredient retained on blotter (percentage of the initial amount) ([1]; Table 6, fragrance TAK in EdT1 or C4, T0, set at 100% (normalisation)): 100% | headspace presence of ingredient [2]: lost
Structure (SMILES): CCCCCCOC(C)=O [Hexyl acetate, Hexyl Acetate]
